# Key:
# [1] = estrogenic, androgenic, anti-estrogenic and anti-androgenic activities
# Text: These methods include receptor binding and in vivo bioassays such as anti-McGinty, anti-Clauberg, glucocorticoid, estrogenic, androgenic, anti-glucocorticoid (AG), anti-estrogen, and anti-androgen activities as well as post-coital and anti-ovulatory activities where in the leading compounds of the instant invention are used as a reference.
# [2] = Measuring serum cortisol in rats; type: in vivo
# [3] = tested on: pain associated with endometriosis; test: Six month endometriosis study: pain diaries and symptom surveys; type: in vivo, pre-menopausal adult women; design: key to score for intensity of pain on a bad day: 0-10 scale; 0 = no pain, 10 = extreme pain
# Protocol: Pain reduction also occurred more rapidly than with the active control, LUCRIN. The response of pain to treatment in this study was analyzed in two ways. Patients in the study maintained daily pain diaries to record the severity and frequency of pain. In addition, at each office visit, patients filled out endometriosis symptom surveys that included a questionnaire that evaluated intensity of pain on a bad day on a scale of 0-10 with 10 being the greatest intensity. […] There appeared to be a dose dependent effect on pain reduction. […] This decrease in duration of pain was statistically better (p=0.0012) than the 117.8 (74%; standard deviation 51.4 days) pain free days achieved with LUCRIN. […] Patients on CDB-4124 12.5 mg and 25 mg doses had 115.9 (66%; standard deviation 69.2 days) and 133.6 (75%; standard deviation 27.4 days) pain free days, respectively. […] The 25 mg and 12.5 mg doses of CDB-4124 were not statistically different from LUCRIN. […] The intensity of pain was asked by the question: “On a scale of 1-10, with 0 being no pain and 10 being extreme pain, how intense was your pain on a bad day?” The mean scores for intensity of pain at baseline were 6.3 for the CDB-4124 groups and 6.1 for the LUCRIN group. […] At month three all four active treatment groups had statistically significant reduction in pain compared with baseline, with the following scores: 3.7 (p=0.03) for 12.5 mg CDB-4124, 3.2 (p=0.03) for 25 mg CDB-4124, 1.6 (p=0.015) for 50 mg CDB-4124 and 1.5 (p=0.016) for LUCRIN. These dose related reductions continued until month six when the values for pain intensity were 2.0 (p=0.008), 2.8 (p=0.023), 0.6 (p=0.004) and 0.7 (p=0.016), respectively. Two months after stopping treatment pain returned and was of similar intensity in all four treatment groups.
# [4] = Six month endometriosis study: estrogen and biomarkers of bone resorption; type: in vivo, pre-menopausal adult women
# Protocol: Thirty-nine pre-menopausal adult women diagnosed with endometriosis were the subject of a six month study of Proellex™ (CDB-4124) in the treatment of endometriosis. The study included three dose levels of CDB-4124 as well as a positive control arm. The positive control was LUCRIN, a GnRH agonist, commonly used for the treatment of endometriosis (also known as LUPRON. CDB-4124 was administered in a double blinded fashion as a daily oral capsule at dosages of 12.5 mg/day (n=2), 25 mg/day (n=3) and 50 mg/day (n=3). Another group (n=4) were injected with a slow release formulation of LUCRIN once per month as a positive control.
# endometrium = test: Six month endometriosis study: endometrial thickness (ultrasound) / endometrial proliferation; type: in vivo, pre-menopausal adult women
# Text: Comparisons were made to both baseline and visit one ultrasound measurements of endometrial thickness. […]
# [5] = Six month endometriosis study: side effects and bleeding; type: in vivo, pre-menopausal adult women; conditions: for non-menstrual spotting and bleeding with excessive endometrial thickening, D&C performed: treatment phase
# Protocol: Although this was a small study and no definitive conclusions can be made from the safety data, there was no single signal of safety observed.
# A similar event was not seen at the 50 mg dose during the treatment phase. Greater than normal bleeding occurred in two patients in the 50 mg CDB-4124 group after treatment was stopped and a D&C was performed in one and the other successfully managed conservatively.
# [6] = Measuring serum corticosterone in rats
# [7] = Attardi et al., 2002; cited from earlier work
structure (smiles),measurement,setting,value
"COCC(=O)[C@@]1(OC(C)=O)CC[C@H]2[C@@H]3CCC4=CC(=O)CCC4=C3[C@@H](c3ccc(N(C)C)cc3)C[C@@]21C [CDB-4124, 21-methoxy-17α-acetoxy-11β-(4 N,N-dimethylaminophenyl)-19-norpregna-4,9-diene-3,20-dione]","estrogenic, androgenic, anti-estrogenic, and anti-androgenic activities",[1],lack
same,serum cortisol versus control group,"[2]; 10 mg/kg, 21 days of chronic dosing, FIG. 1",significantly higher levels of serum cortisol
same,dose-dependent effect on serum cortisol,"[2]; increasing doses, FIG. 2",increased cortisol
same,days of pain over the first three months versus highest dose of CDB-4124 or LUCRIN,[3]; 25 mg and 12.5 mg daily oral,more days of pain
same,relief from pain (intensity) by the first month,[3]; 25 mg and 50 mg groups,Statistically significant relief from pain
same,days of pain at the end of the first month compared with baseline,"[3]; 50 mg, p=0.031",statistically significant reduction in days of pain
same,distress related to pain over the six month exposure,"[3]; all doses, on average",reduced distress related to pain
same,mean score for intensity of pain on a bad day,"[3]; baseline, scale 0-10",6.3
same,score for intensity of pain on a bad day,"[3]; month six, 12.5 mg",2.0
same,score for intensity of pain on a bad day,"[3]; month six, 25 mg",2.8
same,score for intensity of pain on a bad day,"[3]; month six, 50 mg",0.6
same,score for intensity of pain on a bad day,"[3]; month three, 12.5 mg",3.7
same,score for intensity of pain on a bad day,"[3]; month three, 25 mg",3.2
same,score for intensity of pain on a bad day,"[3]; month three, 50 mg",1.6
same,estrogen concentration (mean),[4]; all doses of CDB-4124,> 40 pg/mL
same,biomarkers of bone resorption compared with baseline,"[4]; month three (LUCRIN, p=0.023), three and six months (any dose arm of CDB-4124)",no significant changes in biomarkers of bone resorption
same,women exhibiting thickened endometrium after three months,endometrium; 12.5 mg (n=4),two women
same,women exhibiting thickened endometrium after three months,endometrium; 25 mg (n=4),One person
same,women exhibiting thickened endometrium after three months,endometrium; 50 mg (n=3),none of the women
same,endometrial proliferation in adult females,endometrium; high dosage 50 mg/day,suppresses endometrial proliferation
same,endometrial proliferation in adult females,endometrium; lower dosages 25 mg/day and 12.5 mg/day,does not suppress endometrial proliferation
same,"non-menstrual spotting and bleeding with excessive endometrial thickening, D&C performed",[5]; 12.5 mg and 25 mg groups,two cases
same,"non-menstrual spotting and bleeding with excessive endometrial thickening, D&C performed",[5]; 50 mg dose,not seen
same,greater than normal bleeding after treatment was stopped,[5]; 50 mg group,two patients
same,effect on the primary glucocorticoid of the rat (corticosterone),[6],no strong effect
same,differences in serum corticosterone between treatment groups,"[6]; progesterone, CDB-4124 and RU-486 groups compared",No differences in serum corticosterone
"CNc1ccc([C@H]2C[C@@]3(C)[C@@H](CC[C@]3(OC(C)=O)C(=O)COC)[C@@H]3CCC4=CC(=O)CCC4=C32)cc1 [CDB-4453, 21-methoxy-17α-acetoxy-11β-(4-N-methylaminophenyl)-19-norpregna-4,9-diene-3,20-dione]",anti-glucocorticoid activity relative to parent CDB-4124,[7],even lower anti-glucocorticoid activity than its parent
